Assay results published in publication PMC8945919 (Biomolecules, 2022).
Entries after “also recorded” stand apart in the source; their conditions may differ. Blank lines part the entries; values can stand above or below the substance they belong to. Where no end group is shown, it is not given here.

Legend:
trypsin [1] = biological target: T1, trypsin (Bos taurus, UniProt P00760); experiment: Trypsin digestion of RAD16-I followed by MALDI-TOF; assay type: in vitro ADME; design: key to Peak Presence in MALDI Spectra: peak presence (+); absence (−); settings: for Peak Presence in MALDI Spectra: fragments expected after trypsin digestion of RAD16-I, peptide 100 µM in water (50 µM elsewhere in the source), trypsin 1000:1 peptide:enzyme molar ratio, 0-30 min, untreated and thermally treated (90 °C, 10 min) samples, duplicate
T1 sequence (P00760 24-246): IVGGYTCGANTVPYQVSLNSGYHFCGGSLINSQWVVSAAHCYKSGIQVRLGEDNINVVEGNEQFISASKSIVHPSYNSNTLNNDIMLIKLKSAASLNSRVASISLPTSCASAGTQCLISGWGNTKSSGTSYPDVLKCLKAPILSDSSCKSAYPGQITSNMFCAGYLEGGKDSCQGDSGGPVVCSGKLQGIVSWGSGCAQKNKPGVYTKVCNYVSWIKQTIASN
Method: Matrix-assisted laser desorption/ionization time of flight (MALDI-TOF) of trypsin-digested peptide samples was performed on a Bruker Ultraflex mass spectrometer, equipped with a pulsed nitrogen laser (337 nm). The peptide RAD16-I was diluted from a stock solution to a final concentration of 100 µM in water. Trypsin was added in a molar ratio 1000:1 (peptide:enzyme). Peptide samples were incubated with trypsin at 37 °C for 0, 1, 5, 10 and 30 min (performed in duplicate), and boiled in order to inactivate trypsin. Samples were prepared by mixing 0.5 µL of the peptide solution with 1 µL of the matrix solution (0.3 mg/mL, α-cyano-4-hydroxy-cinnamic acid in ethanol/acetone 2:1). The mixture was then spotted on an anchor-chip target (Bruker, Billerica, MA, USA) and allowed to evaporate to dryness at room temperature. Spectra were acquired in positive reflectron mode, using an acceleration voltage of 25 kV. Acquisition was performed in automated mode, using the Autoexecute software (Bruker, Billerica, MA, USA). A total of 1000 spectra, collected in 50-shot series at different positions of the sample spot were averaged for each sample. A mixture of standard peptides of known molecular mass in the range from 750–3500 Da (Bruker) was used for external calibration of the mass spectra.
To evaluate RAD16-I trypsin degradation, we incubated the peptide with trypsin with or without the previous denaturation step (incubation at 90 °C for 10 min). Thus, we incubated the RAD16-I samples with trypsin at 37 °C for different periods of time, and at each timepoint we mixed the reaction product with the α-cyano-4-hydroxy-cinnamic acid matrix and let the sample dry. Finally, samples were analyzed by MALDI. […] Furthermore, small peaks with m/z 1642 and 1558 could be detected, which may correspond to the peptide chain without one amino acid residue, an alanine and an arginine, respectively. These peptides are most likely impurities from the RAD16-I peptide synthesis.
We next aimed to determine if the structural changes observed by CD after denaturing RAD16-I (Figure 2) had any influence on proteolytic degradation. For that, peptide stock solution was diluted to 50 µM and then denatured or not for 10 min at 90 °C. Then, trypsin was added and incubated at 37 °C for different periods of time. The proteolytic reaction was inactivated by boiling the samples, and samples were finally mixed with the matrix and MALDI spectra were acquired. […] Moreover, no differences between untreated and thermally treated samples were detected.
We hypothesized that these unexpected results were due to an inefficient […] of trypsin when MALDI samples were prepared, in which trypsin was inactivated by boiling the samples. […] In this case, the samples were taken and immediately mixed with the MALDI-TOF matrix and evaporated on the sample holder.

[2] = Thermal stability of secondary structure by circular dichroism; assay type: physicochemical
Method: Circular dichroism studies were performed on a JASCO-810 spectropolarimeter equipped with a Peltier system. RAD16-I samples (commercially available as PuraMatrix^TM, 354250, Corning, Corning, NY, USA) were diluted from a peptide stock solution (1% in water, 5.38 mM) in deionized water to a final concentration of 25, 50 and 75 µM and allowed to equilibrate at 20 or 90 °C for 10 min prior to analysis. CD data were acquired in a range from 195–240 nm at a band width of 1 nm and scan speed of 20 nm/s.
As a self-assembling peptide, RAD16-I is composed of repeating units of hydrophilic and hydrophobic amino acids, in which the charged residues alternate positive and negative charges, forming a β-sheet structure in aqueous solutions (Figure 1). This characteristic sequence is the one responsible for the self-assembly of the peptide molecules into a hydrogel, formed by a network of interweaving nanofibers from 10–20 nm in diameter and 50–200 nm in pore size and, thus, the applicability of the material as a scaffold in biomedical applications. Circular dichroism (CD) studies were performed to characterize the RAD16-I peptide structure. As a peptide with a β-sheet secondary structure, RAD16-I circular dichroism spectrum at room temperature (20 °C) presented a minimum molar ellipticity at 218 nm, which represents the β-sheet content, and a maximum of approximately 195 nm, which corresponds to the backbone twist of the peptide in the β-sheet configuration [38]. […] This spectrum was also maintained when the peptide was incubated at 40 °C.

[3] = Thermal denaturation of nanofibers imaged by AFM; assay type: physicochemical; settings: 100 µM in water, AFM on mica
Method: (§1) To image the thermal denaturation of the self-assembling peptide, RAD16-I samples were diluted in water from a stock solution (5.38 mM) to a final concentration of 100 µM. The thermal treatment consisted of subjecting the sample to a 90 °C incubation for 10 min. Then, 1 µL of sample was deposited onto freshly cleaved mica (Grade V5 mica, Structure Probe Inc., 01804-CA, West Chester, PA, USA), rinsed twice with Milli-Q water and observed under the AFM. For RAD16-I degradation experiments, samples were prepared as follows: RAD16-I was diluted in water from a stock solution at a final concentration of 100 µM. For thermal treated samples, a 10 min denaturation step (incubation at 90 °C) was performed prior to the enzymatic degradation. Samples were cooled at room temperature and trypsin (Merck, T1426) was added at a 1:1000 molar ratio (enzyme:peptide). Samples (1 µL) were taken at 10 and 60 min and were deposited onto freshly cleaved mica, rinsed twice with Milli-Q water, air dried and scanned under the AFM.
AFM images were obtained with a silicon-scanning probe (AC240-TS, Asylum Research) with a resonance frequency of 70 KHz, spring constant 2 N/m, tip curvature radius <10 nm and 240 μm length. Images were obtained with a Multimode AFM microscope (Nanoscope IIIa, Digital Instruments, Santa Barbara, CA, USA) operating in TappingMode. […]

trypsin [4] = biological target: T1, trypsin; experiment: Trypsin degradation of RAD16-I nanofibers imaged by AFM; assay type: in vitro ADME; settings: RAD16-I 100 µM in water, AFM on mica
Method: as §1
AFM images were obtained with a silicon-scanning probe (AC240-TS, Asylum Research) with a resonance frequency of 70 KHz, spring constant 2 N/m, tip curvature radius <10 nm and 240 μm length. Images were obtained with a Multimode AFM microscope (Nanoscope IIIa, Digital Instruments, Santa Barbara, CA, USA) operating in TappingMode. AFM scans were taken at a resolution of 512 × 512 pixels and produced topographic images of samples, whose brightness of features increased as a function of height. Typical scanning parameters were as follows: tapping frequency 75 kHz, RMS amplitude before engagement 1–1.5 V, setpoint 0.7–1 V, integral and proportional gains from 0.3–0.6 and 0.4–0.6, respectively, and scan rate 1.51 Hz.
Because MALDI spectra results indicated peptide proteolysis upon trypsin treatment (Figure 4), we expected to detect structural changes in the peptide using AFM analysis. RAD16-I samples incubated with trypsin were taken at 10 and 60 min and directly spotted into freshly cleaved mica. Then the mica was rinsed with deionized water, dried and observed under the AFM. […]

trypsin [5] = experiment: trypsin in water, molar ratio 1000:1 (peptide:enzyme); untreated (non-denatured) RAD16-I; settings: 37 °C, up to 30 min
trypsin [6] = experiment: trypsin in water, molar ratio 1000:1 (peptide:enzyme); RAD16-I denatured for 10 min at 90 °C before trypsin; settings: 37 °C, up to 30 min

Substance: ADARADARADAR [theoretical trypsin digestion fragment of RAD16-I]
Peak Presence in MALDI Spectra (trypsin [1]; 37 °C, MALDI-TOF): +

Substance: ADAR [theoretical trypsin digestion fragment of RAD16-I]
Peak Presence in MALDI Spectra (trypsin [1]; 37 °C, MALDI-TOF): +

Substance: ADARADA-NH2 [theoretical trypsin digestion fragment of RAD16-I]
Peak Presence in MALDI Spectra (trypsin [1]; 37 °C, MALDI-TOF): +

Substance: AcN-RADARADARADARADA-CONH2 [RAD16-I, self-assembling amphiphilic peptide scaffold, commercially available as PuraMatrix (1% in water)]
Peak Presence in MALDI Spectra (trypsin [1]; 37 °C, MALDI-TOF): +
peak belonging to RAD16-I (m/z 1712) after incubation with trypsin (trypsin [1]; peptide 50 µM, trypsin, 37 °C, 1 min or 30 min, reaction stopped by boiling, MALDI-TOF, regardless of incubation time, no difference between untreated and thermally treated): significantly reduced
disappearance of RAD16-I peak (m/z 1713) upon trypsin treatment, denatured versus untreated samples (trypsin [1]; thermally denatured (90 °C, 10 min) samples compared with untreated, MALDI-TOF, Figure 4h): much faster
degradation of the peptide by trypsin (m/z 1713 peak) (trypsin [1]; untreated and thermally treated samples, taken and immediately mixed with MALDI-TOF matrix and evaporated (no boiling)): very fast
thermal denaturation of concentrated solutions by CD ([2]; 5 mg/mL in water, 2.9 mM, incubated at 20 or 90 °C for 10 min, then diluted to 25 µM to record spectra): thermal denaturalization was not observed
CD spectrum / secondary structure at 20 °C ([2]; 25, 50 and 75 µM in deionized water, 20 °C, 10 min equilibration, CD 195-240 nm): characteristic β-sheet spectrum
CD β-sheet spectrum at 40 °C ([2]; 25, 50 and 75 µM in deionized water, 40 °C): maintained
CD secondary structure at 90 °C, diluted samples ([2]; 25, 50 and 75 µM in deionized water, 90 °C, 10 min): structural transition from β-sheet to random coil
reversibility of the β-sheet to random coil shift ([2]; diluted samples after heating at 90 °C, kept at room temperature): irreversible at room temperature for at least a week
nanofiber network by AFM, thermally treated samples ([3]; 90 °C for 10 min): significantly less dense
nanofiber structure by AFM, untreated samples ([3]; room temperature): dense network of long nanofibers
nanofibers after trypsin incubation, thermally treated samples, 10 min (trypsin [4]; 90 °C 10 min then cooled, trypsin 1:1000 enzyme:peptide, 10 min): only the presence of short fibers was detected
nanofibers after trypsin incubation, thermally treated samples, 60 min (trypsin [4]; 90 °C 10 min then cooled, trypsin 1:1000 enzyme:peptide, 60 min): most of the fibers had disappeared
nanofibers after trypsin incubation, untreated (RT) samples, 10 min to 60 min (trypsin [4]; trypsin 1:1000 enzyme:peptide molar ratio): slight change in nanofiber density

Substance: ADARADARADARADA-NH2 [theoretical trypsin digestion fragment of RAD16-I]
Peak Presence in MALDI Spectra (trypsin [1]; 37 °C, MALDI-TOF): −

Substance: AcN-RADARADARADARADA-CONH2
fragment found (trypsin [5]): AcN-RADAR, 1 min; also recorded: AcN-RADARADAR, 1 min; also recorded: AcN-RADARADARADAR, 1 min; also recorded: ADAR, 1 min; also recorded: ADARADARADA-CONH2, 1 min; also recorded: ADARADA-CONH2, 1 min; also recorded: ADARADARADAR, 1 min; also recorded: ADARADAR, 1 min
fragment found (trypsin [6]): AcN-RADARADAR, 1 min; also recorded: AcN-RADARADARADAR, 1 min; also recorded: ADAR, 1 min; also recorded: ADARADARADA-CONH2, 1 min; also recorded: ADARADA-CONH2, 1 min; also recorded: ADARADARADAR, 1 min; also recorded: ADARADAR, 1 min; also recorded: AcN-RADAR, 1 min

Results, then the substance that gave them:

Peak Presence in MALDI Spectra (trypsin [1]; 37 °C, MALDI-TOF): +
Substance: AcN-RADARADAR [theoretical trypsin digestion fragment of RAD16-I]

Peak Presence in MALDI Spectra (trypsin [1]; 37 °C, MALDI-TOF): +
Substance: AcN-RADARADARADAR [theoretical trypsin digestion fragment of RAD16-I]

Peak Presence in MALDI Spectra (trypsin [1]; 37 °C, MALDI-TOF): +
Substance: ADARADARADA-NH2 [theoretical trypsin digestion fragment of RAD16-I]

Peak Presence in MALDI Spectra (trypsin [1]; 37 °C, MALDI-TOF): +
Substance: ADARADAR [theoretical trypsin digestion fragment of RAD16-I]

Peak Presence in MALDI Spectra (trypsin [1]; 37 °C, MALDI-TOF): +
Substance: AcN-RADAR [theoretical trypsin digestion fragment of RAD16-I]
